Paper PMC10897476, “Pyridylpiperazine efflux pump inhibitor boosts in vivo antibiotic efficacy against K. pneumoniae” (EMBO Molecular Medicine, 2023)
“And” between values parts separate entries of the source, which are not always exact repeats. Equal values may be shown once. Where a SMILES comes first, the peptide text is derived from it.

What was measured:
Assay type in all cases: cell-based, Klebsiella pneumoniae
[1] = system: K. pneumoniae RamR^mut (K124*stop); test: Checkerboard assay levofloxacin x EPI, RamR mutant; conditions: for checkerboard growth readout: ATCC43816 ramRmut, levofloxacin 0 ng/mL
Experimental: (§1) MIC experiments were carried out according to the CLSI guidelines (CLSI [2023]). Overnight cultures were diluted to an OD600 = 0.001 in CAMHB followed by addition of efflux pump inhibitors (EPIs) at a final concentration of 100 µM. […] Plates were incubated at 37 °C for up to 20 h. Bacterial viability was evaluated using the resazurin microtitre assay (REMA) and measured by fluorescence using a Tecan Spaert multimode plate reader (Ex: 530 nm Em: 590 nm). MICs were defined as the concentration that prevented 90% of resazurin turnover compared to the non-treated bacteria.
(§2) Bacterial suspensions, incubation and plate readouts were carried out as described above.

[2] = system: K. pneumoniae AcrB^V448E RamR^mut; test: Checkerboard assay levofloxacin x EPI, double mutant; conditions: ATCC43816 AcrBV448E ramRmut, levofloxacin 0 ng/mL
Experimental: as §1, §2

K. pneumoniae AcrB^V448E [3] = test: MIC of antibiotics with and without EPI (REMA), AcrB V448E mutant; conditions: K. pneumoniae-AcrB^V448E, Table 2
Procedure, shortened: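 K. pneumoniae ATCC 43816 carrying single chromosomal acrB or ramR mutations introduced by allelic exchange, diluted to OD600 = 0.001 in CAMHB with EPI at final 100 µM. Incubated 37 °C up to 20 h; viability by resazurin fluorescence (Ex 530/Em 590 nm).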

[4] = system: K. pneumoniae ATCC 43816 (WT); test: Checkerboard assay levofloxacin x EPI, WT strain; conditions: for checkerboard growth readout: ATCC43816 WT, levofloxacin 0 ng/mL; for percentage resazurin turnover: individual replicates, listed as PABN; for Median REMA values (percentage resazurin turnover): median n=3
Experimental: as §1, §2

K. pneumoniae AcrB^V448E [5] = test: Checkerboard assay levofloxacin x EPI, AcrB V448E mutant; conditions: for checkerboard growth readout: ATCC43816 AcrBV448E, levofloxacin 0 ng/mL; for Median REMA values / percentage resazurin turnover: Lev 0.00 ng/mL
Experimental: as §1, §2

Structure (SMILES): NC(N)=NCCC[C@H](NC(=O)[C@@H](N)Cc1ccccc1)C(=O)Nc1ccc2ccccc2c1 [PAβN] (HELM PEPTIDE1{F.R.[c1ccc2cc(N[*:1])ccc2c1]}$$$$V2.0)
- checkerboard growth readout ([1]; EPI 2.3 µM): 83
- checkerboard growth readout ([1]; EPI 4.7 µM): 85
- checkerboard growth readout ([1]; EPI 9.4 µM): 97
- checkerboard growth readout ([1]; EPI 19 µM): 113
- checkerboard growth readout ([1]; EPI 38 µM): 126
- checkerboard growth readout ([1]; EPI 75 µM): 200
- checkerboard growth readout ([1]; EPI 150 µM): 177
- checkerboard growth readout ([1]; EPI 300 µM): 157
- reversion of RamR-mediated levofloxacin resistance, in words ([1]; K. pneumoniae RamR^mut): only be partially reverted
- checkerboard growth readout ([2]; EPI 2.3 µM): 79
- checkerboard growth readout ([2]; EPI 4.7 µM): 95
- checkerboard growth readout ([2]; EPI 9.4 µM): 80
- checkerboard growth readout ([2]; EPI 19 µM): 121
- checkerboard growth readout ([2]; EPI 38 µM): 158
- checkerboard growth readout ([2]; EPI 75 µM): 211
- checkerboard growth readout ([2]; EPI 150 µM): 226
- checkerboard growth readout ([2]; EPI 300 µM): 191
- susceptibility of the strain to antibiotic boosting by the EPI, in words (K. pneumoniae AcrB^V448E [3]): remained sensitive
- checkerboard growth readout ([4]; EPI 2.3 µM): 75
- checkerboard growth readout ([4]; EPI 4.7 µM): 87
- checkerboard growth readout ([4]; EPI 9.4 µM): 110
- checkerboard growth readout ([4]; EPI 19 µM): 116
- checkerboard growth readout ([4]; EPI 38 µM): 154
- checkerboard growth readout ([4]; EPI 75 µM): 143
- checkerboard growth readout ([4]; EPI 150 µM): 129
- checkerboard growth readout ([4]; EPI 300 µM): 135
- percentage resazurin turnover ([4]; Lev 0.00 ng/mL + EPI 2.34 uM): 100% and 75% and 71%
- Median REMA values (percentage resazurin turnover) ([4]; Lev 0.00 ng/mL + EPI 2.34 uM): 75%
- percentage resazurin turnover ([4]; Lev 0.00 ng/mL + EPI 4.69 uM): 108% and 87% and 69%
- Median REMA values (percentage resazurin turnover) ([4]; Lev 0.00 ng/mL + EPI 4.69 uM): 87%
- percentage resazurin turnover ([4]; Lev 0.00 ng/mL + EPI 9.38 uM): 112% and 110% and 90%
- Median REMA values (percentage resazurin turnover) ([4]; Lev 0.00 ng/mL + EPI 9.38 uM): 110%
- percentage resazurin turnover ([4]; Lev 0.00 ng/mL + EPI 18.75 uM): 116% and 136% and 109%
- Median REMA values (percentage resazurin turnover) ([4]; Lev 0.00 ng/mL + EPI 18.75 uM): 116%
- percentage resazurin turnover ([4]; Lev 0.00 ng/mL + EPI 37.50 uM): 154% and 197% and 115%
- Median REMA values (percentage resazurin turnover) ([4]; Lev 0.00 ng/mL + EPI 37.50 uM): 154%
- percentage resazurin turnover ([4]; Lev 0.00 ng/mL + EPI 75.00 uM): 134% and 143% and 152%
- Median REMA values (percentage resazurin turnover) ([4]; Lev 0.00 ng/mL + EPI 75.00 uM): 143%
- percentage resazurin turnover ([4]; Lev 0.00 ng/mL + EPI 150.00 uM): 129% and 156% and 124%
- Median REMA values (percentage resazurin turnover) ([4]; Lev 0.00 ng/mL + EPI 150.00 uM): 129%
- percentage resazurin turnover ([4]; Lev 0.00 ng/mL + EPI 300 uM): 162% and 135% and 125%
- Median REMA values (percentage resazurin turnover) ([4]; Lev 0.00 ng/mL + EPI 300 uM): 135%
- checkerboard growth readout (K. pneumoniae AcrB^V448E [5]; EPI 2.3 µM): 91
- checkerboard growth readout (K. pneumoniae AcrB^V448E [5]; EPI 4.7 µM): 95
- checkerboard growth readout (K. pneumoniae AcrB^V448E [5]; EPI 9.4 µM): 107
- checkerboard growth readout (K. pneumoniae AcrB^V448E [5]; EPI 19 µM): 112
- checkerboard growth readout (K. pneumoniae AcrB^V448E [5]; EPI 38 µM): 147
- checkerboard growth readout (K. pneumoniae AcrB^V448E [5]; EPI 75 µM): 161
- checkerboard growth readout (K. pneumoniae AcrB^V448E [5]; EPI 150 µM): 143
- checkerboard growth readout (K. pneumoniae AcrB^V448E [5]; EPI 300 µM): 143
- boosting of levofloxacin activity, in words (K. pneumoniae AcrB^V448E [5]; K. pneumoniae AcrB^V448E): maintained
- Median REMA values (K. pneumoniae AcrB^V448E [5]; PABN 2.34 uM): 91%
- percentage resazurin turnover (K. pneumoniae AcrB^V448E [5]; PABN 2.34 uM): 108% and 91% and 74%
- Median REMA values (K. pneumoniae AcrB^V448E [5]; PABN 4.69 uM): 95%
- percentage resazurin turnover (K. pneumoniae AcrB^V448E [5]; PABN 4.69 uM): 95% and 102% and 74%
- Median REMA values (K. pneumoniae AcrB^V448E [5]; PABN 9.38 uM): 107%
- percentage resazurin turnover (K. pneumoniae AcrB^V448E [5]; PABN 9.38 uM): 113% and 107% and 80%
- Median REMA values (K. pneumoniae AcrB^V448E [5]; PABN 18.75 uM): 112%
- percentage resazurin turnover (K. pneumoniae AcrB^V448E [5]; PABN 18.75 uM): 120% and 112%
- Median REMA values (K. pneumoniae AcrB^V448E [5]; PABN 37.50 uM): 147%
- percentage resazurin turnover (K. pneumoniae AcrB^V448E [5]; PABN 37.50 uM): 147% and 150% and 121%
- Median REMA values (K. pneumoniae AcrB^V448E [5]; PABN 75.00 uM): 161%
- percentage resazurin turnover (K. pneumoniae AcrB^V448E [5]; PABN 75.00 uM): 161% and 123% and 162%
- Median REMA values (K. pneumoniae AcrB^V448E [5]; PABN 150.00 uM): 143%
- percentage resazurin turnover (K. pneumoniae AcrB^V448E [5]; PABN 150.00 uM): 143% and 146% and 114%
- Median REMA values (K. pneumoniae AcrB^V448E [5]; PABN 300 uM): 143%
- percentage resazurin turnover (K. pneumoniae AcrB^V448E [5]; PABN 300 uM): 143% and 112%
